Here are results for 4 compounds from ChEMBL document CHEMBL1201862, “PubChem BioAssay data set” (2004).

Calls of active or inactive are those of the source.

Holding throughout (format): functional
Experiment [1] can be described thus: Luminescence Cell-Based Dose Response HTS to Identify Inhibitors of 5'UTR Stem-Loop Driven Prion Protein mRNA Translation in H4 Neuroglioblastoma Cells. [Related pubchem assays: 1827 (Project Summary), 1813 (Primary HTS)].
In experiment [2] the target is Sphingosine 1-phosphate receptor 4 (Homo sapiens, UniProt O95977). The experiment is described as follows: Fluorescence dose response cell-based high throughput screening assay for antagonists of the Sphingosine 1-Phosphate Receptor 4 (S1P4). [Related pubchem assays: 1524 (Confirmation in triplicates.), 1510 (Primary screen.)].
For experiment [3], the target named is Sphingosine 1-phosphate receptor 1 (Homo sapiens, UniProt P21453).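 Also: Tango beta-arrestin reporter U2OS cells stimulated with S1P near its EC80; inhibitor potency meaning antagonism of receptor activation by the natural agonist.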
Experiment [4] in a line: control 3'UTR Renilla luciferase suppression, dose response, counter-screen for Shn3 inhibitor project, cell-based, Clone20-Shn3RL, cherry-picked (AID 624133). (In general: Counterscreens check selectivity or assay interference.)
A further experiment relates to BJ. The experiment is described as follows: cytotoxicity toward Ras-transformed BJeLR fibroblasts, dose response, cell-based, alamar blue fluorescence, cherrypicked samples (AID 2631).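 Also: confirmatory dose-response assay in RAS-dependent BJ fibroblasts engineered with TERT, LT and ST, with cytotoxicity read by fluorescence.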 The note with it: Homo sapiens.
Experiment [5] concerns the target Platelet-derived growth factor receptor beta (Homo sapiens, UniProt P09619).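 Also: value comes from a kinome panel, with PDGFRB tested as one panel member.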
Experiment [6] addresses Dual specificity tyrosine-phosphorylation-regulated kinase 1A (Homo sapiens, UniProt Q13627).
The target in experiment [7] is MAP kinase-activated protein kinase 2 (Homo sapiens, UniProt P49137).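 Also: measured as one member of a kinome-wide kinase panel.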
MAP kinase-activated protein kinase 2, sequence (P49137 whole entry): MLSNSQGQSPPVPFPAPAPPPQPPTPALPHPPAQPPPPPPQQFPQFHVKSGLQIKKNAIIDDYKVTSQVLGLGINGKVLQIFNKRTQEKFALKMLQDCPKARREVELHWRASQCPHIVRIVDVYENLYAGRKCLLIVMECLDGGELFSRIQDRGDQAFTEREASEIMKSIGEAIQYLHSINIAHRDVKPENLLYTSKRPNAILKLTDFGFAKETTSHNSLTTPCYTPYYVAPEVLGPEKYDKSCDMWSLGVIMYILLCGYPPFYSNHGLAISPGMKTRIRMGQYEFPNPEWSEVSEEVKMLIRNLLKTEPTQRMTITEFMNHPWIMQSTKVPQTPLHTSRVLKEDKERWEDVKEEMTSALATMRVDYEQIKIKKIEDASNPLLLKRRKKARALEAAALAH
Experiment [8] has as its target Serine/threonine-protein kinase pim-1 (Homo sapiens, UniProt P11309).
For experiment [9], the target named is Proto-oncogene tyrosine-protein kinase receptor Ret (Homo sapiens, UniProt P07949).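 Also: measured within a kinome-wide profiling panel, RET as the panel member.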
The target of experiment [10] is Mitogen-activated protein kinase kinase kinase kinase 4 (Homo sapiens, UniProt O95819).
The next experiment addresses Focal adhesion kinase 1 (Homo sapiens, UniProt Q05397).
Experiment [11] addresses Dual specificity mitogen-activated protein kinase kinase 1 (Homo sapiens, UniProt Q02750). The experiment is described as follows: Navigating the Kinome. Panel member name: MAP2K1.
The target in experiment [12] is Serine/threonine-protein kinase DCLK1 (Homo sapiens, UniProt O15075).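 Also: affinity for DCLK1 (listed as DCAMKL1) measured as one member of a kinome-wide kinase profiling panel.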
Serine/threonine-protein kinase DCLK1, sequence (O15075 whole entry): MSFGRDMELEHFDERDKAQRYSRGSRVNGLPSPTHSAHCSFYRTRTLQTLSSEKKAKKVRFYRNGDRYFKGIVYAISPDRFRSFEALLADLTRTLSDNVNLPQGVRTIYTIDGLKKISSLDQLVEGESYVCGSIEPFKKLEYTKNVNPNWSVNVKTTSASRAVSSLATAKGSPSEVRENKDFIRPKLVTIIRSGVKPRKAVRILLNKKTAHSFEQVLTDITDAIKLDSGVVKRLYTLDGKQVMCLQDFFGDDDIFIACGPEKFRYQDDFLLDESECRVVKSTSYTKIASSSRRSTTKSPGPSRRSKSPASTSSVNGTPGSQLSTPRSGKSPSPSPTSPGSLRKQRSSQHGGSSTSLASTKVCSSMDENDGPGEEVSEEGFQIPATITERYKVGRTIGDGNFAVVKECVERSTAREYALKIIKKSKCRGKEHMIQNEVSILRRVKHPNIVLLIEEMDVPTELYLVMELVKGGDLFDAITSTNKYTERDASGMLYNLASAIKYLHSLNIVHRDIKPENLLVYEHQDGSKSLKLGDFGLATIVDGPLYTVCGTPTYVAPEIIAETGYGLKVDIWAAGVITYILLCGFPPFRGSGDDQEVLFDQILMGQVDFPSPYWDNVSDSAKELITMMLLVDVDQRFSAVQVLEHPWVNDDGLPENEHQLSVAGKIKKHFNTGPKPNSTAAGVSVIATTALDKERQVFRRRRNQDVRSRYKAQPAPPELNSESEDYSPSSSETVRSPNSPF
Experiment [13] addresses Serine/threonine-protein kinase PLK4 (Homo sapiens, UniProt O00444).
In experiment [14] the target is Serine/threonine-protein kinase Nek2 (Homo sapiens, UniProt P51955).
Serine/threonine-protein kinase Nek2, sequence (P51955 whole entry): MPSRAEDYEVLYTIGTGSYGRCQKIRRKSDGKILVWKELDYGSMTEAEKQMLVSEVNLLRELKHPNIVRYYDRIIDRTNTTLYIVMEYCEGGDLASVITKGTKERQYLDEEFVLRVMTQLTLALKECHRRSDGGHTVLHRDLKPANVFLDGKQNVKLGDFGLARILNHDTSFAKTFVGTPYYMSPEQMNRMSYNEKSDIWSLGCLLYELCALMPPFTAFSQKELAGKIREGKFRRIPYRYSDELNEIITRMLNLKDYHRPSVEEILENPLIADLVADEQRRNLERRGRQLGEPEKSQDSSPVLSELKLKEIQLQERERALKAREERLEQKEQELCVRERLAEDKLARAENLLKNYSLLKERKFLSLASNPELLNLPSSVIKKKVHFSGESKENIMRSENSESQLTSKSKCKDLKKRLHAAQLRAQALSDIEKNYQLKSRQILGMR
The target in experiment [15] is Serine/threonine-protein kinase pim-2 (Homo sapiens, UniProt Q9P1W9).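 Also: value comes from a broad kinase panel profiling study in which PIM2 was one of the panel members.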
Experiment [16] has as its target Cyclin-dependent kinase 8 (Homo sapiens, UniProt P49336). The experiment is described as follows: Navigating the Kinome. Panel member name: CDK8.
Experiment [17] has as its target Mast/stem cell growth factor receptor Kit (Homo sapiens, UniProt P10721).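 Also: KIT entry within a kinase panel assay.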
Experiment [18] deals with Vascular endothelial growth factor receptor 1 (Homo sapiens, UniProt P17948).
The target in experiment [19] is MAP kinase-activated protein kinase 5 (Homo sapiens, UniProt Q8IW41).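 Also: measured as one member of a kinome panel.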
Experiment [20] deals with Protein kinase C zeta type (Homo sapiens, UniProt Q05513).
Protein kinase C zeta type, sequence (Q05513 whole entry): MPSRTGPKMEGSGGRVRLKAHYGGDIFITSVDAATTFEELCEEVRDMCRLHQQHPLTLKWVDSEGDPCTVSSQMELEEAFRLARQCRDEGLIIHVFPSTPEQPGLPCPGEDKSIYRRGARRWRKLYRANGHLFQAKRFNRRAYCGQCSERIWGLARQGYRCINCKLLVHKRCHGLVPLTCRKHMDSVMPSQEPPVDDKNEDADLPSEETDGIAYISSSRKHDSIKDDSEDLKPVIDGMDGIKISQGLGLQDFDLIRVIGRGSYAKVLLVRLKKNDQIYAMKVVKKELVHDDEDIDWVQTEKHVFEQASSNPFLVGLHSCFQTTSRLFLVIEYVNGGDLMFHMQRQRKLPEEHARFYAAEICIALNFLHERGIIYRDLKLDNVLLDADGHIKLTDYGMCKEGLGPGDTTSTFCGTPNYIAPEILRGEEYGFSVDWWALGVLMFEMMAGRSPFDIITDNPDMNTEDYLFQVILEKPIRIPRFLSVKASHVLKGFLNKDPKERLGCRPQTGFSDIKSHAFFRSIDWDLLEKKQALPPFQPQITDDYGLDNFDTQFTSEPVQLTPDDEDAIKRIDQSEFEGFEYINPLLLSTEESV
For the next experiment, the target named is Misshapen-like kinase 1 (Homo sapiens, UniProt Q8N4C8).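 Also: kinome panel screen with MINK as the panel member.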
The target of experiment [21] is Phosphorylase b kinase gamma catalytic chain, liver/testis isoform (Homo sapiens, UniProt P15735).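 Also: PHKG2 measured as one member of a kinome-wide kinase panel.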
Experiment [22] has as its target Dual specificity protein kinase CLK4 (Homo sapiens, UniProt Q9HAZ1).
In experiment [23] the target is Serine/threonine-protein kinase Nek4 (Homo sapiens, UniProt P51957).
In experiment [24] the target is Mitogen-activated protein kinase 12 (Homo sapiens, UniProt P53778).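 Also: measured as one member of a kinome-wide kinase profiling panel.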
In experiment [25] the target is RAC-alpha serine/threonine-protein kinase (Homo sapiens, UniProt P31749).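 Also: AKT1 affinity measured as one member of a kinome-wide kinase profiling panel.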
RAC-alpha serine/threonine-protein kinase, sequence (P31749 whole entry): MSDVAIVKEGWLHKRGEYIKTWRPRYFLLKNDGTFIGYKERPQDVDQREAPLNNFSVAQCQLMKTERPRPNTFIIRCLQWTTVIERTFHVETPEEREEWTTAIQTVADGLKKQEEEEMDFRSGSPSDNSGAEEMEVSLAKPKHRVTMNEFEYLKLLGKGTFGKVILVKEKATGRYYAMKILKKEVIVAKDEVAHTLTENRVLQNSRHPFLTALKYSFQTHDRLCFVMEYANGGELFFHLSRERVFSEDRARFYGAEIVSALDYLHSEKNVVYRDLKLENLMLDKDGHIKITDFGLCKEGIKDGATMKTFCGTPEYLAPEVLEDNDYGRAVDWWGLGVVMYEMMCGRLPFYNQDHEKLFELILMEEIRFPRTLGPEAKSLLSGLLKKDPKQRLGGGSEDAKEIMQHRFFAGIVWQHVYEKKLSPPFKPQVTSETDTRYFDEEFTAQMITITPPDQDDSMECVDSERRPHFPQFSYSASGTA
Experiment [26] has as its target Macrophage-stimulating protein receptor (Homo sapiens, UniProt Q04912). The experiment is described as follows: Navigating the Kinome. Panel member name: MST1R.
The target of experiment [27] is 3-phosphoinositide-dependent protein kinase 1 (Homo sapiens, UniProt O15530).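 Also: value comes from the Navigating the Kinome panel, PDPK1 member.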
In experiment [28] the target is Leukocyte tyrosine kinase receptor (Homo sapiens, UniProt P29376). The experiment can be described thus: Navigating the Kinome. Panel member name: LTK.
In experiment [29] the target is Serine/threonine-protein kinase PAK 4 (Homo sapiens, UniProt O96013).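 Also: value obtained within a kinome profiling panel in which PAK4 was one of the panel members.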
Experiment [30] deals with Tyrosine-protein kinase Srms (Homo sapiens, UniProt Q9H3Y6).
Experiment [31] deals with STE20-like serine/threonine-protein kinase (Homo sapiens, UniProt Q9H2G2).
In another experiment the target is Ephrin type-A receptor 2 (Homo sapiens, UniProt P29317).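 Also: EPHA2 tested as one member of a kinome-wide kinase panel.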
The target of experiment [32] is Tyrosine-protein kinase SYK (Homo sapiens, UniProt P43405).
The target of experiment [33] is Maternal embryonic leucine zipper kinase (Homo sapiens, UniProt Q14680).
The target in another experiment is Albumin (Bos taurus, UniProt P02769). The experiment can be described thus: Counterscreen for inhibitors of T-cell receptor (TCR)-CD3 interaction: Fluorescence-based biochemical high throughput dose response assay to identify inhibitors of T-cell receptor (TCR)-CD3 interaction using a TAMRA-labeled BSA probe.
Albumin, sequence (P02769 whole entry): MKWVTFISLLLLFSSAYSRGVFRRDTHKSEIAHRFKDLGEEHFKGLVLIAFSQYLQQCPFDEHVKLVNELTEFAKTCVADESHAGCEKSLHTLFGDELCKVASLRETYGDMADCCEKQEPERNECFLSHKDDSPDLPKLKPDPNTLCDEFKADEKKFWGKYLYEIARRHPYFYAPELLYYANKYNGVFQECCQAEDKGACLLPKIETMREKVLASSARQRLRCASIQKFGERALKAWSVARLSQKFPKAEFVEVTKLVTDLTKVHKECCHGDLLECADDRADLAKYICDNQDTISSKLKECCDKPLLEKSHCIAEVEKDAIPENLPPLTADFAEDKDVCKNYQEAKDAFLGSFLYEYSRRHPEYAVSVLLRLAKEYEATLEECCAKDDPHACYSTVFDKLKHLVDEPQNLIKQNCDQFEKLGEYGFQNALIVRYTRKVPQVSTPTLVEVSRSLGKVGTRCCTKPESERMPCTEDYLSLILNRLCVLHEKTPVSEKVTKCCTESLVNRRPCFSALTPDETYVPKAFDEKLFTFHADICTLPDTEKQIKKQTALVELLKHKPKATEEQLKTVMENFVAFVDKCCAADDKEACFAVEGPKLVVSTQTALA
Experiment [34] concerns the target Intestinal-type alkaline phosphatase (Mus musculus, UniProt P24822). The experiment can be described thus: PubChem AID 488874.

Mast/stem cell growth factor receptor Kit, sequence (P10721 whole entry): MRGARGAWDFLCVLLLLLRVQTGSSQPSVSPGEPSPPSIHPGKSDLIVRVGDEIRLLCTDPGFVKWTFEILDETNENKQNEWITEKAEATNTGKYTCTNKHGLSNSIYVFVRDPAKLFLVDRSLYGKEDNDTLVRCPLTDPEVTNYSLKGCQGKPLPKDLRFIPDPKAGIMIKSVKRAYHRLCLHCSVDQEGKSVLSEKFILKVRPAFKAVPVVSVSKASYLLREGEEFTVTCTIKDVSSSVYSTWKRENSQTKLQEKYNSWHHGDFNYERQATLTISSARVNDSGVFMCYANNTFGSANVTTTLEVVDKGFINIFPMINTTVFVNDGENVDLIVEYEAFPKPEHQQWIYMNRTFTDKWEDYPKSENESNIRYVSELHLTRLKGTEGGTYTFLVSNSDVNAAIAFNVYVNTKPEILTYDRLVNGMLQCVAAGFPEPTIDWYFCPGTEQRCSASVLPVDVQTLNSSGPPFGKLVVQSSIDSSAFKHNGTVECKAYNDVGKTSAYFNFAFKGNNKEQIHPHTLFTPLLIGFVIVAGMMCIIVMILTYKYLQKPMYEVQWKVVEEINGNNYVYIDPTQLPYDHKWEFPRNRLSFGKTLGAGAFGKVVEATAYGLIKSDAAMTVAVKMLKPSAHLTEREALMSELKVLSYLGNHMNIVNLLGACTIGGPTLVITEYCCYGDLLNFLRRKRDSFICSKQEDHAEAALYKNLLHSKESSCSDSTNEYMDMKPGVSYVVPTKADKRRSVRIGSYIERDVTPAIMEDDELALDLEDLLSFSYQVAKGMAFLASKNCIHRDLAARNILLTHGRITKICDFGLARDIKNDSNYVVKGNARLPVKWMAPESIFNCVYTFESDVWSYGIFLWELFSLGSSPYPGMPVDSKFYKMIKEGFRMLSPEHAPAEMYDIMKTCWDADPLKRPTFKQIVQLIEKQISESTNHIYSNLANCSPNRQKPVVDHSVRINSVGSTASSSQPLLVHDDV
Dual specificity protein kinase CLK4, sequence (Q9HAZ1 whole entry): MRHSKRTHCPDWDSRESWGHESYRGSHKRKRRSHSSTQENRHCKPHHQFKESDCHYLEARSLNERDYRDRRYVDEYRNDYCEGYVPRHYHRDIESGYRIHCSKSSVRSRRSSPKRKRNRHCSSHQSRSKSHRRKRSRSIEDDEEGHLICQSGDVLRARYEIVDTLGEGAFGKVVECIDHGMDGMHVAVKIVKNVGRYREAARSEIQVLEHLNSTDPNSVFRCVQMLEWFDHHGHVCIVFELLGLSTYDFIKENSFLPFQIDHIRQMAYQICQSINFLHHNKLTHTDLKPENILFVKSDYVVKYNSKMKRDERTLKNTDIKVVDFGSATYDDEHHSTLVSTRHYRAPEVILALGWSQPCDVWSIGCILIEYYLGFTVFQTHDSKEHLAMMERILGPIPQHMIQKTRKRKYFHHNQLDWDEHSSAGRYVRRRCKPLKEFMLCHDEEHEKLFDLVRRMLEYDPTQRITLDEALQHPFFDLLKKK

The EC50 is the concentration needed to bring the measured effect to its halfway point. In general, IC50 refers to the concentration needed to halve the response being measured. What is called AC50 is the concentration at which the activity in the assay is half-maximal. Regarding `COC(=O)C1CN(C#N)N(c2ccc(Cl)cc2)C12c1ccccc1-c1ccccc12` (centres undefined), the 50% effective concentration (EC50) is 10.1 µM (active) in [1] and 0.563 µM (inconclusive) in the experiment on BJ. For the same compound, the IC50 was 0.313 µM (active) in experiment [2] and 5.76 µM (active) in experiment [3]. The AC50 in [4] was 3 µM (active).

By Ki is commonly meant a dissociation constant, usually derived from enzyme kinetics or from competition with a known ligand. Consider `Nc1noc2cccc(-c3cccc(O)c3)c12`, for which the Ki in experiment [5] is 7.94 µM (active); in experiment [6] it was 2 µM (active); in experiment [7], > 7.94 µM (inactive); in [8], 12.6 µM (active); in experiment [9], 0.794 µM (active); in experiment [10], 20 µM (active). Further, the Ki is > 39.8 µM (inactive) on Focal adhesion kinase 1; 1.58 µM (active) in experiment [11]; > 10 µM (inactive) in experiment [12]; 2 µM (active) in experiment [13]; > 10 µM (inactive) in experiment [14]; > 1.58 µM (inactive) in experiment [15]. The Ki in experiment [16] is 0.501 µM (active); in experiment [17], > 1.26 µM (inactive); in [18] it was > 10 µM (inactive); in experiment [19], > 1.58 µM (inactive); in experiment [20], > 7.94 µM (inactive); at Misshapen-like kinase 1, 3.16 µM (active). For the same compound, the Ki was > 5.01 µM (inactive) in [21]; 1.26 µM (active) in experiment [22]; > 6.31 µM (inactive) in experiment [23]; > 6.31 µM (inactive) in [24]; > 7.94 µM (inactive) in [25]; 20 µM (active) in [26]. Besides, the Ki in experiment [27] was > 3.98 µM (inactive); in [28], 1.26 µM (active); in [29], > 5.01 µM (inactive); in experiment [30], > 1.58 µM (inactive); in experiment [31], > 10 µM (inactive); on Ephrin type-A receptor 2, > 3.16 µM (inactive). The Ki in experiment [32] and in experiment [33] was > 1.58 µM (inactive) each time.

In the case of `O=C1NC(=S)S/C1=C\C=C\c1ccc([N+](=O)[O-])o1`, the IC50 on Albumin is > 94.1 µM (inactive).

With `O=C(NN1C(=O)CSC1=S)C(=O)NN1C(=O)CSC1=S`, in [34], the IC50 was 3.84 µM (active).
